Source: patent publication US8431712B2, “Methods for the synthesis of pyridoxamine” (NephroGenex, Inc., priority 2004, dated 2013)

Target: post-Amadori AGE formation (RNase Amadori)
Experiment: Post-Amadori inhibitory activity: inhibition of AGE formation from RNase Amadori, detected by ELISA (BST-3CK antibody, DELFIA Europium)
Type: biochemical
Details: for potency at inhibiting post-Amadori AGE formation compared to PM: comparison with pyridoxamine (PM)
Procedure: This example illustrates the activity of the dimer and trimer for inhibiting post-Amadori AGE formation compared to pyridoxamine.
All reactions were done in duplicate All compound stocks were 100 mM in DMSO. All reactions were carried out for 20 hours in 10% DMSO and 0.18 M Phosphate pH 7.4 Reaction volumes were 50 μl. Compound dilutions were first done in 100% DMSO Add to each well: • 20 μl of 0.2 M Phosphate • then 5 μl of compound dilution in 100% DMSO mix • Add 25 μl of 0.2 mg/ml RNase Amadori produced for a final protein concentration in the reaction of 0.1 mg/ml. • After 20 hours the reaction wells were diluted with coating buffer 5 to 50 then 4 to 50 to give a final concentration of 0.8 μg/ml or 40 ng/well. • Coat for two hours • Block one hour • 1 hour with primary antibody BST-3CK @ 1:10,000 • 1 hour with secondary antibody DELFIA Europium GAR @ 0.25 μg/ml (secondary antibody stock is at 660 μg/ml so diluted about 1:2500).
Compounds were tested over the range of concentrations 1000 to 1 μM.

[1] = 20 hours, 10% DMSO, 0.18 M Phosphate pH 7.4, 0.1 mg/ml RNase Amadori, tested 1000 to 1 μM, duplicate

Row | IC50 [1] | potency at inhibiting post-Amadori AGE formation compared to PM | IC50 (from previous experiments) | Structure (SMILES)
1 | 1000 µM | more potent than PM |  | Cc1ncc(CO)c(Cc2nc(C)c(O)c(CN)c2CO)c1O [Dimer X]
2 |  |  | 7000 µM | Cc1ncc(CO)c(CN)c1O [Sigma PM, 4-aminomethyl-3-hydroxy-5-hydroxymethyl-2-methylpyridine, reference compound]
3 | 400 µM | more potent than PM |  | Cc1ncc(CO)c(Cc2nc(C)c(O)c(Cc3nc(C)c(O)c(CN)c3CO)c2CO)c1O [Trimer XX]
